In general, AC50 refers to the concentration giving half of the maximal activity seen. Read a low AC50 as greater potency.

This assay concerns human bronchial epithelial cells, CFTR corrector, plate reader. Kind of assay: CFTR ΔF508 corrector activity in bronchial cells, dose response, human bronchial epithelial cells, plate reader, cherry-pick, two tests (AID 743267).
[1] abbreviates: measured here: test 1 replicate run.
Where [2] appears, read: measured here: test 2 replicate run.

Regarding `C[C@H]1CCCCO[C@@H](CN(C)C(=O)C2CCCCC2)[C@@H](C)CN([C@@H](C)CO)C(=O)c2cc(NC(=O)Nc3ccc(C(F)(F)F)cc3)ccc2O1`, the AC50 under setting [1] worked out at 15.8 µM.

Take `CCCC(=O)Nc1nc2ccc(NC(=O)c3c(F)c(F)c(OC)c(F)c3F)cc2s1`: the AC50 under setting [2] came out at 1.13 µM.

Consider `CC(C)Nc1ccc(Nc2ccnc3cc4ccccc4cc23)cc1`, for which the AC50 under setting [2] came to 7.34 µM.

For the compound `CO/N=C\CC(=O)Nc1ccc(Cl)cc1Cl`, the AC50 under setting [2] amounted to 30.9 µM.

As for `COc1cccc2c1C(=O)C=C(C)C2=O`, the AC50 under setting [2] was 15.2 µM.

Turning to `COc1ccc(N(C)S(=O)(=O)c2cccc(C(=O)NCC3CCCCC3)c2)cc1`, the half-maximal activity concentration (AC50) under setting [2] was 48.2 µM.

In the case of `C[C@@H]1CN([C@@H](C)CO)C(=O)Cc2cc(N(C)C)ccc2O[C@@H]1CN(C)Cc1ccccc1`, the AC50 under setting [1] was 3.78 µM.

Compound `O=C(NCCCN1CCOCC1)c1sc2cc(Cl)ccc2c1Cl` returned an AC50 under setting [2] of 1.76 µM.

`Cc1ccc(S(=O)(=O)N2C[C@H]3[C@H]4C(=O)N(C)C(=O)[C@H]4CC(=O)[C@H]3[C@@H]2c2ccccc2F)cc1` registered an AC50 under setting [2] of 37.1 µM.

Turning to `COc1ccc(Nc2nc(-c3sc(C)nc3C)cs2)c(OC)c1`, under setting [2], the AC50 amounted to 12.3 µM.

Turning to `COc1ccc(OC)c(-c2cnc(OC(C)(C)C)nc2OC(C)(C)C)c1`, the AC50 under setting [2] is 13.9 µM.

In turn, `COc1ccc(OC)c(Nc2nc(-c3sc(NC(=O)C(C)(C)C)nc3C)cs2)c1` returned an AC50 under setting [2] of 2.78 µM.

Regarding `NCC(=O)NNC(=O)OCC1c2ccccc2-c2ccccc21`, the AC50 under setting [2] came out at 7.38 µM.

Compound `COc1ccc(C(=O)NCC(c2ccco2)N2CCc3ccccc32)cc1` (configuration not stated) showed an AC50 under setting [2] of 2.69 µM.

Take `O=C1/C(=C\c2ccc(O)cc2)SC(=S)N1Cc1ccccc1`: the AC50 under setting [2] was 20.5 µM.

With `COc1cc(OC)c2c(-c3cccc(-c4sccc4C(C)=O)c3)cc(=O)oc2c1`, the AC50 under setting [2] is 12.2 µM.

The compound `COc1ccc(CNS(=O)(=O)c2cc(-c3cc(C)no3)ccc2C(C)C)cc1` gave an AC50 under setting [2] of 2.16 µM.

As for `CC(=O)Nc1cccc(-c2ccnc3c2CC(C)(C(=O)NCc2cccs2)O3)c1` (configuration not stated), the AC50 under setting [2] was determined as 3.3 µM.

For the compound `O=C(NCc1ccccc1)C1Cc2c(-c3cccc(F)c3)ccnc2O1` (configuration not stated), under setting [2], the AC50 is 0.893 µM.

Under setting [2], `Cc1cccc(N2CCN(C(=O)c3c(-c4ccccc4)noc3C)CC2)c1C` displayed an AC50 of 2.59 µM.

Under setting [2], `O=P(Oc1ccc(-c2ccccc2)cc1)(N1CC1)N1CC1` registered an AC50 of over 50 µM.

`Clc1ccc(SCc2cc(N3CCOCC3)nc(-c3ccccn3)n2)cc1` showed an AC50 under setting [2] of 4.5 µM.

On to `Clc1cccc(-c2ccc(C=Nc3ccc(N4CCOCC4)cc3)o2)c1Cl`, for which the concentration at half-maximal activity (AC50) under setting [2] is over 50 µM.

As to `CC(C)(C)C1COc2ccccc2N1C(=O)c1cccc(Cl)c1` (configuration not stated), under setting [2], the concentration at half-maximal activity (AC50) turned out to be 1.63 µM.

Compound `CC(Sc1nc2ccccc2c(=O)n1C)C(=O)Nc1ccc2c(c1)OCCO2` (configuration not stated) returned an AC50 under setting [2] of over 50 µM.

The compound `CC(=O)Nc1sc2c(c1-c1nc3ccccc3s1)CN(C(C)C)CC2` showed a half-maximal activity concentration (AC50) under setting [2] of 1.43 µM.

Under setting [2], `COc1ccc(C(=O)OCC(=O)N2C(C)CCCC2C)cc1S(=O)(=O)N1CCOCC1` (configuration not stated) gave an AC50 of 29.6 µM.

`O=C(N/N=C/c1cccs1)c1cc(C2CC2)nc2ccccc12` gave an AC50 under setting [2] of 6.27 µM.

On to `COc1ccc2sc3cccc(NCCN(C)C)c3c(=O)c2c1`, for which, under setting [2], the AC50 amounted to 8.47 µM.

Consider `Clc1ccc2c(c1)-c1ccccc1C1=NCCN12`, for which, under setting [2], the AC50 turned out to be 2.72 µM.

As for `CC1CN(S(=O)(=O)c2cccc(C(=O)Nc3cc(Cl)ccc3N3CCOCC3)c2)CC(C)O1` (configuration not stated), under setting [2], the AC50 is over 50 µM.

On to `Cc1cc(C)c2nc(Cl)c(CN(Cc3ccco3)C(=O)Nc3ccccc3C)cc2c1`, for which, under setting [2], the AC50 was determined as 2.87 µM.

Take `O=[N+]([O-])c1ccc(Sc2cccc[n+]2[O-])c2nonc12`: the AC50 under setting [2] was determined as 12.7 µM.

The compound `Cc1ccc2c(CN3CCN(S(=O)(=O)c4ccc(Cl)cc4)CC3)cc(=O)oc2c1C` yielded an AC50 under setting [2] of 11.6 µM.

Under setting [1], `O=C1CN(S(=O)(=O)Cc2ccccc2)C[C@@H]2[C@@H](c3ccc(C#Cc4cccc(F)c4)cc3)[C@H](CO)N12` had an AC50 of 16 µM.

`CC1(C)OC(c2ccccc2)=C/C(=C/C=C2C(=O)NC(=O)NC2=O)O1`: under setting [2], the AC50 was 24.8 µM.

In turn, `CCOc1ccc(-c2cc(C(=O)N3CCN(c4ccccn4)CC3)c3ccccc3n2)cc1` showed an AC50 under setting [2] of 16 µM.

Regarding `O=Nc1ccc(O)c2ncccc12`, the AC50 under setting [2] was 3.57 µM.

Under setting [2], `COc1cccc(N2CCN(C(=O)c3ccc(CS(=O)c4ccc(Cl)cc4)o3)CC2)c1` (configuration not stated) came in with a half-maximal activity concentration (AC50) of 1.48 µM.

`O=S(=O)(Nc1ccc(F)cc1Cl)c1ccc(-c2cnc(C3CC3)o2)cc1` yielded an AC50 under setting [2] of 2.23 µM.

`COc1ccc([C@H]2CC(=O)C=C(c3c(OC)cccc3OC)C2)cc1` yielded an AC50 under setting [2] of 6.28 µM.

Regarding `Cc1cc(C(=O)N/N=C/c2ccc(N(C)C)cc2)c2ccccc2n1`, under setting [2], the AC50 turned out to be 5.44 µM.

`CN1c2ccc(-c3ccc(F)cc3)cc2[C@H]2[C@H](CCN2S(=O)(=O)c2cccc(F)c2)[C@H]1CO` had a concentration at half-maximal activity (AC50) under setting [1] of 4.41 µM.

Under setting [2], `COc1cc(C(=O)Nc2ccccc2C(=O)Nc2ccccn2)cc(OC)c1OC` returned an AC50 of 4.59 µM.

`Cc1nn(C)c(C)c1/C=C/C(=O)O` gave an AC50 under setting [2] of over 50 µM.

`NS(=O)(=O)c1ccc(Cl)c(S(N)(=O)=O)c1` returned a concentration at half-maximal activity (AC50) under setting [2] of 1.16 µM.

`CC(=O)Nc1ccc(S(=O)(=O)Nc2cccc(-c3nc4cc(C)ccc4o3)c2)cc1` displayed an AC50 under setting [2] of 8.92 µM.

Consider `COc1ccc(S(=O)(=O)N2CC[C@@H]3[C@@H](CO)N(C)c4ccc(-c5ccc(F)cc5)cc4[C@@H]32)cc1`, for which the AC50 under setting [1] was 13 µM.

Regarding `CCCCC(=NCCc1c(C)[nH]c2ccccc12)C1=C(O)CC(c2ccccc2)CC1=O` (configuration not stated), the concentration at half-maximal activity (AC50) under setting [2] is 3.92 µM.

Compound `CCCCNC(=O)C(=O)Nc1ccc2c(c1)N(S(=O)(=O)c1cccs1)CCC2` returned an AC50 under setting [2] of 1.89 µM.

With `O=C(N/N=C/c1c(O)ccc2ccccc12)c1ccc(Br)o1`, under setting [2], the AC50 worked out at 6.34 µM.

The compound `O=C1c2cccc3c(N4CCCCC4)ccc(c23)C(=O)N1c1cccc(O)c1` registered an AC50 under setting [2] of 24.3 µM.

`CC(=O)Nc1ccc2cc3ccc(NC(C)=O)cc3nc2c1` had a half-maximal activity concentration (AC50) under setting [2] of 18.1 µM.

With `COc1cc(NC(=O)c2csc(N)n2)cc(C(=O)Nc2cccc(C(F)(F)F)c2)c1`, the AC50 under setting [2] was determined as 16 µM.

`COc1cc(NC(=O)N2CCNC2=O)cc(C(=O)Nc2cccc(C(F)(F)F)c2)c1` returned a concentration at half-maximal activity (AC50) under setting [2] of 5.11 µM.

Compound `Cc1ccc(NC(=O)c2ccc(Cl)c(S(=O)(=O)Nc3c(C)n(C)n(-c4ccccc4)c3=O)c2)cc1Cl` had an AC50 under setting [2] of 30.3 µM.

Under setting [2], `O=C1c2cccc3c(O)ccc(c23)C(=O)N1c1ccc(Cl)cc1` returned an AC50 of 16.8 µM.

`COc1ccc2cc(CN(CC3CCCO3)C(=S)Nc3ccccc3)c(=O)[nH]c2c1` (configuration not stated): the AC50 under setting [2] was over 50 µM.

Compound `Cc1ccc(N2CC(C(=O)N(C)CC(=O)Nc3ccc(Cl)c(C(F)(F)F)c3)CC2=O)cc1` (configuration not stated) yielded an AC50 under setting [2] of 33.3 µM.

Under setting [2], `COc1cc(OC)cc(-c2cc3ccc(OC)cc3cn2)c1` had a concentration at half-maximal activity (AC50) of 43.6 µM.

`O=c1ccc2c(-c3ccccc3)c3ccc(O)cc3oc-2c1` registered an AC50 under setting [2] of 2.2 µM.

Under setting [2], `Nc1ccc2c3c(cccc13)C(=O)N(c1ccccc1)C2=O` had an AC50 of 16 µM.

In turn, `COc1nc(-c2ccccc2)cc(-c2ccc3c(c2)OCO3)c1C#N` came in with an AC50 under setting [2] of 3.66 µM.

Under setting [2], `COc1ccc([N+](=O)[O-])cc1Nc1c2ccccc2nc2ccccc12` displayed an AC50 of 2.62 µM.

On to `COc1ccc(-c2ccc3c(c2)[C@H]2[C@H](CCN2S(=O)(=O)c2ccc(OC)cc2)[C@H](CO)N3C)cc1`, for which the AC50 under setting [1] came out at 1.17 µM.

`O=C(NCc1ccccc1)C1Cc2c(-c3ccc(Cl)cc3)ccnc2O1` (configuration not stated) yielded an AC50 under setting [2] of 2.18 µM.

In the case of `O=C(NN=C1CCCC1)c1[nH]c2ccc(Cl)cc2c1-c1ccccc1`, under setting [2], the AC50 was 6.72 µM.
